Key:
[1] = Stability of DMSO stock solution checked by UPLC-MS; type: physicochemical; conditions: 100 μM in DMSO, 3 months at −20° C., at least 6 freeze-thaw cycles
Procedure: The stability of nitrate esters was checked by performing UPLC-MS on a previously prepared stock solution of DD-1. A 100 μM stock solution was prepared in DMSO and stored for 3 months at −20° C. during which time it was exposed to at least 6 freeze-thaw cycles.

Hb = biological target: T1, Hb (Homo sapiens, UniProt P68871+P69905); experiment: Effect on Hb affinity for oxygen (oxygen equilibrium curve study) using normal whole blood; type: cell-based; conditions: 2 mM compound; for ΔP50: versus DMSO control, whole blood; for N (Hill coefficient) / P50: whole blood (Hct ~29%), 37° C.
T1 construct: Normal whole blood used in some of the functional assays was collected from adult donors; from tissue; host or cells: normal human whole blood (red cells) from adult donors
Source text: RSR-13 is an allosteric effector of Hb that acts by decreasing Hb affinity for O2, and as a result allows release of more O2 to tissues.^26 In this study, a nitrate ester moiety was incorporated onto RSR-13. It was proposed that, in vivo, the NO will cleave off, resulting in the parent compound and free NO, the former acting as right-shifter of the oxygen equilibrium curve while the latter is released into the vasculature. The following describe the synthesis of three nitrate esters of RSR-13, including DD-1, DD-2 and DD-3 (FIGS. 1-3). Other NO containing RSR-13 derivatives, such as those referenced above may be synthesized according to the same or similar processes. Normal whole blood used in some of the functional assays was collected from adult donors at the Virginia Commonwealth University after informed consent. Hb used for structural studies was purified from discarded normal blood samples. The use of these human samples is in accordance with regulations of the IRB for Protection of Human Subjects.
The effect of DD-1 on Hb affinity for oxygen was studied using whole blood with RSR-13 as a positive control. Solution of DD-1 and RSR-13 was added to 2 mL of whole blood (Hemocrit of ˜29%) to make a final drug concentration of 2 mM. Time-dependent studies were carried out at various time points (ranging from 1 h to 12 h) at 37° C. Briefly, blood-drug mixture samples at various time points were incubated in IL 237 tonometer (Instrumentation Laboratories, Inc., Lexington, Mass.) for about 5-7 min at 37° C. against gas mixture containing O2 concentrations of 0.804%, 2.935% and 8.785% and allowed to equilibrate at O2 tensions of 6, 20, 60 mmHg, respectively. After equilibration, the sample was removed via syringe and aspirated into a ABL 700 series table top automated blood gas analyzer (Radiometer America, Inc., Westlake, Ohio) to determine total hemoglobin (tHb), hematocrit (Hct), pH, pCO2, partial pressure of oxygen (pO2), and the Hb oxygen saturation values (sO2). The measured values of pO2 and sO2 at each oxygen saturation level were then subjected to a non-linear regression analysis using the program Scientist (Micromath, Salt Lake City, Utah) with the following equation:
[formula] This equation was used to calculate P50 and Hill coefficient (N) values. Corresponding control experiments without the test compound (P50control) but containing DMSO were also performed.

[2] = Griess assay of nitric oxide release (quantitated as NO2- release); type: physicochemical; conditions: 2 mM solution in 0.1 M phosphate buffer pH 7.4 mixed with 36 mM L-cysteine, 37° C., anaerobic
Procedure: A Griess assay was used to measure the NO releasing ability of DD-1 following literature procedures.^29-31 Solution of the test compound (1 mL of a 2 mM solution in 0.1 M phosphate buffer (pH 7.4)) was mixed thoroughly with a freshly prepared solution of L-cysteine (1 mL of a 36 mM solution in 0.1 M phosphate buffer, pH 7.4), and incubated at 37° C. for 1 and 16 h under anaerobic conditions. After exposure to air for 10 min at 25° C., an aliquot of the Griess reagent (1 mL) [freshly prepared by mixing equal volumes of 1.0% sulfanilamide (prepared and stored in aqueous 5% phosphoric acid) and 0.1% N-naphthylethylenediamine dihydrochloride in water] was added to equal volume (1 mL) of each incubation solution after mixing. After 10 min, absorbance was measured at 540 nm using a Hewlett Packard (Agilent) 8453 UV-visible Spectroscopy. NaNO2 solutions of 1-100 μM concentrations were used to prepare a standard nitrite curve of absorbance (nm) versus concentration (μM), and the NO released by DD-1 (quantitated as NO2^−release in μM) was calculated from the standard nitrite curve by extrapolation of the absorbance.

T1 sequence (P69905 2-142 limits assumed): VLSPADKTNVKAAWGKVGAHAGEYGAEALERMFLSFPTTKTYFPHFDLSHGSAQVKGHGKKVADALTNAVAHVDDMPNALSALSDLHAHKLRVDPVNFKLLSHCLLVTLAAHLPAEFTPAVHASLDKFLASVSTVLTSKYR
T1 sequence (P68871 2-147 limits assumed): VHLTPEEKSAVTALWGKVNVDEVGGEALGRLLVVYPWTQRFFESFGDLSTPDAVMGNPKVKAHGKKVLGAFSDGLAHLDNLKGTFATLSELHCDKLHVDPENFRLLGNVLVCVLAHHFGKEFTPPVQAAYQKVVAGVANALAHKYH

SMILES | Stability of stock solution [1] | ΔP50 (Hb; incubation time 1 h) | ΔP50 (Hb; incubation time 2 h) | ΔP50 (Hb; incubation time 4 h) | ΔP50 (Hb; incubation time 8 h) | ΔP50 (Hb; incubation time 12 h) | N (Hill coefficient) (Hb; incubation time 1 h) | P50 (Hb; incubation time 1 h) | N (Hill coefficient) (Hb; incubation time 2 h) | P50 (Hb; incubation time 2 h) | N (Hill coefficient) (Hb; incubation time 4 h) | P50 (Hb; incubation time 4 h) | N (Hill coefficient) (Hb; incubation time 8 h) | P50 (Hb; incubation time 8 h) | N (Hill coefficient) (Hb; incubation time 12 h) | P50 (Hb; incubation time 12 h) | NO2- release after 1 hour ([2]; 1 h incubation) | NO2- release after 16 hours ([2]; 16 h incubation)
Cc1cc(C)cc(NC(=O)Cc2ccc(OC(C)(C)C(=O)OCCO[N+](=O)[O-])cc2)c1 [DD-1, 2-(Nitrooxy)ethyl 2-(4-(2-((3,5-dimethylphenyl)amino)-2-oxoethyl)phenoxy)-2-methylpropanoate] | stable | 3.2 mmHg | 6.3 mmHg | 16.3 mmHg | 25.4 mmHg | 27.8 mmHg | 2.3 | 35.7 mmHg | 2.1 | 39.2 mmHg | 1.9 | 49.9 mmHg | 1.7 | 60.3 mmHg | 1.7 | 64.8 mmHg | 9.61 µM | 5.35 µM
Cc1cc(C)cc(NC(=O)Cc2ccc(OC(C)(C)C(=O)O)cc2)c1 [RSR-13, 2-[4-[2-[(3,5-dimethylphenyl)amino]-2-oxoethyl]phenoxy]-2-methylpropanoic acid, reference compound] |  | 15.3 mmHg | 15.0 mmHg | 16.1 mmHg | 16.9 mmHg | 15.6 mmHg | 1.8 | 47.8 mmHg | 1.9 | 47.9 mmHg | 1.8 | 49.7 mmHg | 1.8 | 51.8 mmHg | 1.9 | 52.6 mmHg |  | 

Source: patent US9765017B2, “Allosteric hemoglobin modifiers with nitric oxide releasing moiety” (VIRGINIA COMMONWEALTH UNIVERSITY, priority 2013, dated 2017)
